Read-outs that look alike come from different tables or passages of the source.
Assays:
Assay in all cases: Kinase panel
Assay type in all cases: biochemical
[1] = target: ABL1 (Homo sapiens, UniProt P00519); details: ABL1, 1 µM; read-out: residual enzyme activity
Summary of the method: (§1)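 1 µM, one concentration only, biochemical panel format. Residual activity computed per kinase; threshold for identification: residual ≤40%.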

[2] = target: ALK3/BMPR1A (Homo sapiens, UniProt P36894); details: read-out: residual enzyme activity
Summary of the method: as §1

[3] = target: BRK (Homo sapiens, UniProt Q13882); details: read-out: residual enzyme activity
Summary of the method: as §1

[4] = target: CDK2/CYCLIN A (Homo sapiens, UniProt P24941); details: read-out: residual enzyme activity
Summary of the method: as §1

[5] = target: CDK4/CYCLIN D3 (Homo sapiens, UniProt P11802); details: CDK4/cyclin D3, 1 µM; read-out: residual enzyme activity
Summary of the method: as §1

[6] = target: CK1A1L (Homo sapiens, UniProt Q8N752); details: read-out: residual enzyme activity
Summary of the method: as §1

[7] = target: DYRK2 (Homo sapiens, UniProt Q92630); details: DYRK2, 1 µM; read-out: residual enzyme activity
Summary of the method: as §1

[8] = target: EGFR (Homo sapiens, UniProt P00533); details: read-out: residual enzyme activity
Summary of the method: as §1

[9] = target: EPHA3 (Homo sapiens, UniProt P29320); details: EPHA3, 1 µM; read-out: residual enzyme activity
Summary of the method: as §1

[10] = target: EPHB3 (Homo sapiens, UniProt P54753); details: EPHB3, 1 µM; read-out: residual enzyme activity
Summary of the method: as §1

[11] = target: ERK7/MAPK15 (Homo sapiens, UniProt Q8TD08); details: ERK7/MAPK15, 1 µM; read-out: residual enzyme activity
Summary of the method: as §1

[12] = target: FGFR2 (Homo sapiens, UniProt P21802); details: FGFR2, 1 µM; read-out: residual enzyme activity
Sequence of FGFR2 (P21802 22-821, species assumed): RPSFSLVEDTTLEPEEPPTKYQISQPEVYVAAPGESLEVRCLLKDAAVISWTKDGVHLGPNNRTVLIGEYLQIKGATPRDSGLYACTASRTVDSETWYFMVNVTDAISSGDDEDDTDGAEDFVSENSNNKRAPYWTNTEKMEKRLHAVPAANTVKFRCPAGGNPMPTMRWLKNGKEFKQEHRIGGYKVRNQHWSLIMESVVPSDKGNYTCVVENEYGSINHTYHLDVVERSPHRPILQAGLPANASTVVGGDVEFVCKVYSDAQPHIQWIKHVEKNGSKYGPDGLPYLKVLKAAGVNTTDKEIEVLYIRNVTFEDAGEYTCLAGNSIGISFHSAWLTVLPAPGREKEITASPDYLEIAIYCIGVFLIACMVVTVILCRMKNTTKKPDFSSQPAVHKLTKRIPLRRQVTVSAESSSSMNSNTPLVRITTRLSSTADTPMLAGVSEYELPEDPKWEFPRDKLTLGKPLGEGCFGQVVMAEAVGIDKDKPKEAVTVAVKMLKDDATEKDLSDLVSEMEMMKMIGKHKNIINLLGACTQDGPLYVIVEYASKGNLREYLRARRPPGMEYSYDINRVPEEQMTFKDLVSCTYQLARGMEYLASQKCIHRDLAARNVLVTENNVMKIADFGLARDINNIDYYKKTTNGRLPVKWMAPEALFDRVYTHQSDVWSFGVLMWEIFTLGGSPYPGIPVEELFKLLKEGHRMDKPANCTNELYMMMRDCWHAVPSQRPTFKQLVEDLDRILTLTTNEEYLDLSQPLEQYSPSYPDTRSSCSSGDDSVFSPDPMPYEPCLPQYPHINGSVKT
Summary of the method: as §1

[13] = target: FGFR3 (Homo sapiens, UniProt P22607); details: FGFR3, 1 µM; read-out: residual enzyme activity
Sequence of FGFR3 (P22607 23-806, species assumed): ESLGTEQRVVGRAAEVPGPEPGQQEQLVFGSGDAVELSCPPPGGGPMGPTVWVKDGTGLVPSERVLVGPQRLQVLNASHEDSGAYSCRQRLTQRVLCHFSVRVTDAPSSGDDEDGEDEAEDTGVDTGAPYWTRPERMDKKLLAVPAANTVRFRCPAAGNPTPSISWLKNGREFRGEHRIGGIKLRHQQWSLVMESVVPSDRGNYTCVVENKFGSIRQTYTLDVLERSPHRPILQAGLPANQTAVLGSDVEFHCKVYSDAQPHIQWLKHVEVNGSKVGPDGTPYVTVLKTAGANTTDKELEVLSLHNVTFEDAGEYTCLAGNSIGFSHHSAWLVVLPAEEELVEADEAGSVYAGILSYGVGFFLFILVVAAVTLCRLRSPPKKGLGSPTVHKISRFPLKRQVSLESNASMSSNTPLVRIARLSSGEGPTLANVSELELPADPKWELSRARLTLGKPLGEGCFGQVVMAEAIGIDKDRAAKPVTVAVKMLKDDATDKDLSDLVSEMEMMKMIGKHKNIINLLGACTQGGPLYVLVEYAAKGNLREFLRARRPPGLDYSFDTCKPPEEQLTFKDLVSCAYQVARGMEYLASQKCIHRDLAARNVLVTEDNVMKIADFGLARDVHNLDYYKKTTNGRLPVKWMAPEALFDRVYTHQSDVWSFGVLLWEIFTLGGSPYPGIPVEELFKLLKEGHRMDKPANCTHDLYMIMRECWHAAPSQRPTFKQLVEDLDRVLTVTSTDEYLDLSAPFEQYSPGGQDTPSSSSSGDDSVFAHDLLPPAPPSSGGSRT
Summary of the method: as §1

[14] = target: HIPK1 (Homo sapiens, UniProt Q86Z02); details: HIPK1, 1 µM; read-out: residual enzyme activity
Summary of the method: as §1

[15] = target: IKKA/CHUK (Homo sapiens, UniProt O15111); details: read-out: residual enzyme activity
Summary of the method: as §1

[16] = target: MARK1 (Homo sapiens, UniProt Q9P0L2); details: MARK1, 1 µM; read-out: residual enzyme activity
Summary of the method: as §1

[17] = target: MARK2/PAR-IBA (Homo sapiens, UniProt Q7KZI7); details: read-out: residual enzyme activity
Summary of the method: as §1

[18] = target: P38A/MAPK14 (Homo sapiens, UniProt Q16539); details: read-out: residual enzyme activity
Summary of the method: as §1

[19] = target: PAK2 (Homo sapiens, UniProt Q13177); details: PAK2, 1 µM; read-out: residual enzyme activity
Sequence of PAK2 (Q13177 whole entry, species assumed): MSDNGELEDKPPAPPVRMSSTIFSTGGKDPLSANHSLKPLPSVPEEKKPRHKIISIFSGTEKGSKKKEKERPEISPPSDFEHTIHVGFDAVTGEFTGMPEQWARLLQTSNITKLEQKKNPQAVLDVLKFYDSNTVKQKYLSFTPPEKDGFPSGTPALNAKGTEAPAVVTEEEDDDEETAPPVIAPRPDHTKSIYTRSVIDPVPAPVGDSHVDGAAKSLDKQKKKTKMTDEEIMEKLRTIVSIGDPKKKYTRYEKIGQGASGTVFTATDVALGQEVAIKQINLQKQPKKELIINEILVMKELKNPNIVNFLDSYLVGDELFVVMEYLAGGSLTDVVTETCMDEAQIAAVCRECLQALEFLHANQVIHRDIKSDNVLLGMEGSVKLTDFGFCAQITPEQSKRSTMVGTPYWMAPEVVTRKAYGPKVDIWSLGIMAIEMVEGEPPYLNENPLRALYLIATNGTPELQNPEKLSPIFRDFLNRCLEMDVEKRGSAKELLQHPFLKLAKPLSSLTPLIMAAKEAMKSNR
Summary of the method: as §1

[20] = target: PAK3 (Homo sapiens, UniProt O75914); details: PAK3, 1 µM; read-out: residual enzyme activity
Summary of the method: as §1

[21] = target: PHKG1 (Homo sapiens, UniProt Q16816); details: read-out: residual enzyme activity
Summary of the method: as §1

[22] = target: PKCD (Homo sapiens, UniProt Q05655); details: read-out: residual enzyme activity
Summary of the method: as §1

[23] = target: PKCG (Homo sapiens, UniProt P05129); details: read-out: residual enzyme activity
Summary of the method: as §1

[24] = target: PLK2 (Homo sapiens, UniProt Q9NYY3); details: PLK2, 1 µM; read-out: residual enzyme activity
Summary of the method: as §1

[25] = target: RAF1 (Homo sapiens, UniProt P04049); details: RAF1, 1 µM; read-out: residual enzyme activity
Summary of the method: as §1

[26] = target: ROCK1 (Homo sapiens, UniProt Q13464); details: ROCK1, 1 µM; read-out: residual enzyme activity
Summary of the method: as §1

[27] = target: RON/MSTIR (Homo sapiens, UniProt Q04912); details: read-out: residual enzyme activity
Summary of the method: as §1

[28] = target: STK32B/YANK2 (Homo sapiens, UniProt Q9NY57); details: STK32B/YANK2, 1 µM; read-out: residual enzyme activity
Summary of the method: as §1

[29] = target: STK38L/NDR2 (Homo sapiens, UniProt Q9Y2H1); details: STK38L/NDR2, 1 µM; read-out: residual enzyme activity
Summary of the method: as §1

[30] = target: TIE2/TEK (Homo sapiens, UniProt Q02763); details: read-out: residual enzyme activity
Summary of the method: as §1

[31] = target: TYK2 (Homo sapiens, UniProt P29597); details: TYK2, 1 µM; read-out: residual enzyme activity
Summary of the method: as §1

[32] = target: ULK1 (Homo sapiens, UniProt O75385); details: ULK1, 1 µM; read-out: residual enzyme activity
Sequence of ULK1 (O75385 whole entry, species assumed): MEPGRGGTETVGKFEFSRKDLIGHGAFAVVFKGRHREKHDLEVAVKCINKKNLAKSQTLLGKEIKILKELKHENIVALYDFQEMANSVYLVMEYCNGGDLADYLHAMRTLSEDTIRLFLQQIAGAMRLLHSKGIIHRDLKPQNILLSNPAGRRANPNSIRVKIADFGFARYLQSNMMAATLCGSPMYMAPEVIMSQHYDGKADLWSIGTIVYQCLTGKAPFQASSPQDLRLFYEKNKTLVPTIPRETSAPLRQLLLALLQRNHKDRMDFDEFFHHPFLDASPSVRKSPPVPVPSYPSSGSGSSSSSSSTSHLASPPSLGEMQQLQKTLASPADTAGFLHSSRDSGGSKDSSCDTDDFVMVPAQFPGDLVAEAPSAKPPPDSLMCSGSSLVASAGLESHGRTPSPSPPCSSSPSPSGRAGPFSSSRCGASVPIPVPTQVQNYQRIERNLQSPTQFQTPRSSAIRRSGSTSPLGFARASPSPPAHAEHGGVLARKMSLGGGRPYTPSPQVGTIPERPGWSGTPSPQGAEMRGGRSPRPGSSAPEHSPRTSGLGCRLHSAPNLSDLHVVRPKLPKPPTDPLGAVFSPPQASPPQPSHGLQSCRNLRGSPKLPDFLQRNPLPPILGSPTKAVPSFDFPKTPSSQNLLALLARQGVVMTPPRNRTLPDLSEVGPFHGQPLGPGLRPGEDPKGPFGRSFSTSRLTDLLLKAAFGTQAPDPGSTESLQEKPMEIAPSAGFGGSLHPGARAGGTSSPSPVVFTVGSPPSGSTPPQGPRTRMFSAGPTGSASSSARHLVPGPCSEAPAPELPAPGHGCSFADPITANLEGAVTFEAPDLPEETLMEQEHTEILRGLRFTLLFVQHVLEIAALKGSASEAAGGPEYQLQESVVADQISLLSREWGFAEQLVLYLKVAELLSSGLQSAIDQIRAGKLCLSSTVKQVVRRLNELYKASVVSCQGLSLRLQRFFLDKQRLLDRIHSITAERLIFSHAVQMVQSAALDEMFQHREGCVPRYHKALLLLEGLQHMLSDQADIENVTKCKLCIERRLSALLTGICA
Summary of the method: as §1

[33] = target: VRK2 (Homo sapiens, UniProt Q86Y07); details: VRK2, 1 µM; read-out: residual enzyme activity
Summary of the method: as §1

Sequence of ABL1 (P00519 whole entry): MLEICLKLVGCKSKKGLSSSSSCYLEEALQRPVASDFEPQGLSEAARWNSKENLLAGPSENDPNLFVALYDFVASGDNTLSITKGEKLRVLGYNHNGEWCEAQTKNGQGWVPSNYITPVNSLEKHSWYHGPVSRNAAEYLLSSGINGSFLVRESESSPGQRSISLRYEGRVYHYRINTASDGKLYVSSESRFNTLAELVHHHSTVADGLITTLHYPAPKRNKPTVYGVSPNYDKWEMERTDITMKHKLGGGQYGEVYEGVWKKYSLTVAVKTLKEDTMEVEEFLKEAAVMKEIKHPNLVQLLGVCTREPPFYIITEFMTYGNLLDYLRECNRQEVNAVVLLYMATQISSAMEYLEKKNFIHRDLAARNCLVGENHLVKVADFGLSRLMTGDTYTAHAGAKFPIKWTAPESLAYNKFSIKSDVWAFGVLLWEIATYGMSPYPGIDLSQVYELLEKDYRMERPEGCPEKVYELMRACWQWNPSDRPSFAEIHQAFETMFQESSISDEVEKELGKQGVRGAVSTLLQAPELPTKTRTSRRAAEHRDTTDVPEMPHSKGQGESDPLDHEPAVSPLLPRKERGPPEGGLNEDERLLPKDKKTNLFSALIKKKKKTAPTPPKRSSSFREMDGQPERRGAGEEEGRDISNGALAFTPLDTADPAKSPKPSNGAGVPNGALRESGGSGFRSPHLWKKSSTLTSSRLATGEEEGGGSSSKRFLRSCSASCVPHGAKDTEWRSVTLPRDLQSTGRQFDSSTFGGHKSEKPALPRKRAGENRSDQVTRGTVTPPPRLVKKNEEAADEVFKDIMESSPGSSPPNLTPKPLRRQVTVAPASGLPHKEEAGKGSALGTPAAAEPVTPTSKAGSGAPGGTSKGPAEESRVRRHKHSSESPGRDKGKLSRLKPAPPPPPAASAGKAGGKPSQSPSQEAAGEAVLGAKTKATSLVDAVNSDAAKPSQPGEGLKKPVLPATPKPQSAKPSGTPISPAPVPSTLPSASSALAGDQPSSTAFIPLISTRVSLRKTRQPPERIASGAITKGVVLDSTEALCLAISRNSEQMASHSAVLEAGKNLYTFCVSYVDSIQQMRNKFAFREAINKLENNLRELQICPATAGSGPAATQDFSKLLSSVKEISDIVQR

Compound | remaining activity at 1 µM [1] [%] | remaining activity at 1 µM [2] [%] | remaining activity at 1 µM [3] [%] | remaining activity at 1 µM [4] [%] | remaining activity at 1 µM [5] [%] | remaining activity at 1 µM [7] [%] | remaining activity at 1 µM [8] [%] | remaining activity at 1 µM [9] [%] | remaining activity at 1 µM [10] [%] | remaining activity at 1 µM [11] [%] | remaining activity at 1 µM [12] [%] | remaining activity at 1 µM [13] [%] | remaining activity at 1 µM [14] [%] | remaining activity at 1 µM [15] [%] | remaining activity at 1 µM [16] [%] | remaining activity at 1 µM [19] [%] | remaining activity at 1 µM [20] [%] | remaining activity at 1 µM [22] [%] | remaining activity at 1 µM [23] [%] | remaining activity at 1 µM [24] [%] | other results
Cc1cn(-c2cc(C(=O)Nc3ccc(C)c(N4Cc5cnc(NC6CC6)nc5C5(CC5)C4=O)c3)cc(C(F)(F)F)c2)cn1 [Compound 8, N-(3-(2'-(cyclopropylamino)-7'-oxo-5'H-spiro[cyclopropane-1,8'-pyrido[4,3-d]pyrimidine]-6'(7'H)-yl)-4-methylphenyl)-3-(4-methyl-1H-imidazol-1-yl)-5-(trifluoromethyl)benzamide] | ≤ 40 | > 40 | ≤ 40 | > 40 | > 40 | > 40 | ≤ 40 | ≤ 40 | ≤ 40 | > 40 | ≤ 40 | ≤ 40 | > 40 | > 40 | > 40 | > 40 | > 40 | > 40 | > 40 | > 40 | remaining activity at 1 µM ([6]; CK1A1L): > 40%; remaining activity at 1 µM ([17]; MARK2/PAR-IBA): > 40%; remaining activity at 1 µM ([18]; P38A/MAPK14, 1 µM): ≤ 40%; remaining activity at 1 µM ([21]; PHKG1, 1 µM): > 40%; remaining activity at 1 µM [25]: ≤ 40%; remaining activity at 1 µM [26]: > 40%; remaining activity at 1 µM [27]: > 40%; remaining activity at 1 µM [28]: ≤ 40%; remaining activity at 1 µM [29]: > 40%; remaining activity at 1 µM [30]: ≤ 40%; remaining activity at 1 µM [31]: ≤ 40%; remaining activity at 1 µM [32]: > 40%; remaining activity at 1 µM [33]: > 40%
Cc1ccc(Nc2ncc3c(n2)C2(CC2)C(=O)N(c2cc(NC(=O)c4cccc(C(F)(F)F)c4)ccc2C)C3)cn1 [Compound 51, N-(4-methyl-3-(2'-((6-methylpyridin-3-yl)amino)-7'-oxo-5'H-spiro[cyclopropane-1,8'-pyrido[4,3-d]pyrimidine]-6'(7'H)-yl)phenyl)-3-(trifluoromethyl)benzamide] | ≤ 40 | > 40 | ≤ 40 | > 40 | > 40 | > 40 | ≤ 40 | ≤ 40 | ≤ 40 | > 40 | ≤ 40 | ≤ 40 | > 40 | > 40 | > 40 | > 40 | > 40 | > 40 | > 40 | > 40 | remaining activity at 1 µM ([6]; CKlalL): > 40%; remaining activity at 1 µM ([17]; MARK2/PAR-IBa): > 40%; remaining activity at 1 µM ([18]; P38a/MAPK14, 1 µM): ≤ 40%; remaining activity at 1 µM ([21]; PHKgl, 1 µM): > 40%; remaining activity at 1 µM [25]: ≤ 40%; remaining activity at 1 µM [26]: > 40%; remaining activity at 1 µM [27]: > 40%; remaining activity at 1 µM [28]: ≤ 40%; remaining activity at 1 µM [29]: > 40%; remaining activity at 1 µM [30]: ≤ 40%; remaining activity at 1 µM [31]: ≤ 40%; remaining activity at 1 µM [32]: > 40%; remaining activity at 1 µM [33]: > 40%

From patent EP4722212A1, “NOVEL COMPOUND FOR INHIBITING PROTEIN KINASES AND PHARMACEUTICAL COMPOSITION COMPRISING SAME” (Magicbullettherapeutics Co., Ltd., priority 2023, dated 2024)
